In experiment [1] the target is Botulinum neurotoxin type A (Clostridium botulinum, UniProt P0DPI0). In words: Inhibition of Clostridium botulinum BoNT/A light chain assessed as inhibition of SNAP-25 (187-203) substrate hydrolysis by RP-HPLC-based assay in presence of excess Zn(II).
In experiment [2] the target is Botulinum neurotoxin type A (Clostridium botulinum) (UniProt P0DPI0). In words: Competitive inhibition of Clostridium botulinum BoNT/A light chain assessed as inhibition of SNAP-25 (187-203) substrate hydrolysis by Dixon plot analysis.

Calls of active or inactive are those of the source. The calls are words filed in the database; no cut-off is given here.

Sequence of Botulinum neurotoxin type A (Clostridium botulinum) (P0DPI0 2-448 limits assumed): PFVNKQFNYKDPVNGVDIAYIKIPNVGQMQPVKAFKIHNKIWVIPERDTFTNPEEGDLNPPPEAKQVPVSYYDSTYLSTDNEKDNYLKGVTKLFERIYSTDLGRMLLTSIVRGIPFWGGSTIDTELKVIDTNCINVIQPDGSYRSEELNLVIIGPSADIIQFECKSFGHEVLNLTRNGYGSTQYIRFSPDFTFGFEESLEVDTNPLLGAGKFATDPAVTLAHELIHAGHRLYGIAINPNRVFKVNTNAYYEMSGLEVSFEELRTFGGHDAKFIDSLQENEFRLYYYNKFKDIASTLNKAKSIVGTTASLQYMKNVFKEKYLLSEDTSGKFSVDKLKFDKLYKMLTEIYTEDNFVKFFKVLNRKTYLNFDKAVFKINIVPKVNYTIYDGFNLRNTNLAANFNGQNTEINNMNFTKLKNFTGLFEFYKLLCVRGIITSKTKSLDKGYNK
Sequence of Botulinum neurotoxin type A (P0DPI0 2-448 limits assumed): as above

As to `O=C(NCCCNc1ccnc2cc(Cl)ccc12)c1cc(NC(=O)c2ccc(C(=O)Nc3cc(C(=O)NCCCNc4ccnc5cc(Cl)ccc45)cc(C4=NCCN4)c3)cc2)cc(C2=NCCN2)c1`, the Ki (commonly a measure of affinity in units of concentration, obtained from inhibition or displacement) in experiment [1] was 572 nM. Further, the inhibition result in experiment [2] is “Active”.
For `CCCCNC(=O)c1cc(NC(=O)c2ccc(C(=O)Nc3cc(C(=O)NCCCC)cc(C4=NCCN4)c3)cc2)cc(C2=NCCN2)c1`, the Ki in experiment [1] stood at 8520 nM.
For the compound `O=C(NCCCCNc1ccnc2cc(Cl)ccc12)c1cc(NC(=O)c2ccc(C(=O)Nc3cc(C(=O)NCCCCNc4ccnc5cc(Cl)ccc45)cc(C4=NCCN4)c3)cc2)cc(C2=NCCN2)c1`, the Ki in experiment [1] is 900 nM. The inhibition result in experiment [2] is “Active”.
The matching figures for `O=C(NCCNc1ccnc2cc(Cl)ccc12)c1cc(NC(=O)c2ccc(C(=O)Nc3cc(C(=O)NCCNc4ccnc5cc(Cl)ccc45)cc(C4=NCCN4)c3)cc2)cc(C2=NCCN2)c1`: 2120 nM and “Active”.
